Assay results from patent publication US20260232658A1, “AZETIDINYL BENZOXAZOLE COMPOUNDS AND THEIR USE AS MER AND AXL INHIBITORS” (DONG-A ST CO., LTD., priority 2022, published 2026).

Columns and labels:
[1] = molecular target: T1, human MER (528-end) (Homo sapiens, UniProt Q12866); assay: HTRF kinase activity biochemical assay, MER; settings: recombinant kinase, 10 uM ATP, 30 minutes pre-incubation; read-out: HTRF MERTK IC50;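 note: phosphorylation of a biotin-tagged tyrosine kinase substrate detected by Eu3+-cryptate antibody and streptavidin-XL665 time-resolved fluorescence, read after 1 h at room temperature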
T1 construct: human MER (528-end); purchased Carnabio, Japan
T1 sequence (Q12866 528-999 limits assumed): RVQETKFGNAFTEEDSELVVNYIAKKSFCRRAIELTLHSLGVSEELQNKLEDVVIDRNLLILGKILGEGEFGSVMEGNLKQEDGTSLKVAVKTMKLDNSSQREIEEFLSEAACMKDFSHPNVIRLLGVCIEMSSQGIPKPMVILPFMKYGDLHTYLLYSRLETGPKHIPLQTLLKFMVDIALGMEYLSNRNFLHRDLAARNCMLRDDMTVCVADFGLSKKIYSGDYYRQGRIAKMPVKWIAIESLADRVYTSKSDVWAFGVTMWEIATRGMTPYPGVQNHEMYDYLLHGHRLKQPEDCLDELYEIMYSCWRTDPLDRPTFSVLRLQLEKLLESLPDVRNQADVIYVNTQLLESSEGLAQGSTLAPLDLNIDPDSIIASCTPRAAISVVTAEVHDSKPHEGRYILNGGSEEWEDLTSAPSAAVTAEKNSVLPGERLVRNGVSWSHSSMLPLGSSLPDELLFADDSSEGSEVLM

[2] = molecular target: T2, human AXL (473-end) (Homo sapiens, UniProt P30530); assay: HTRF kinase activity biochemical assay, AXL; settings: recombinant kinase, 10 uM ATP, 30 minutes pre-incubation; read-out: HTRF AXL IC50;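 note: phosphorylation of a biotinylated tyrosine kinase substrate detected via Eu3+-cryptate anti-TK antibody and streptavidin-XL665, fluorescence read after a 1 h incubation at room temperature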
T2 construct: human AXL (473-end); purchased SignalChem, Canada
T2 sequence (P30530 473-894 limits assumed): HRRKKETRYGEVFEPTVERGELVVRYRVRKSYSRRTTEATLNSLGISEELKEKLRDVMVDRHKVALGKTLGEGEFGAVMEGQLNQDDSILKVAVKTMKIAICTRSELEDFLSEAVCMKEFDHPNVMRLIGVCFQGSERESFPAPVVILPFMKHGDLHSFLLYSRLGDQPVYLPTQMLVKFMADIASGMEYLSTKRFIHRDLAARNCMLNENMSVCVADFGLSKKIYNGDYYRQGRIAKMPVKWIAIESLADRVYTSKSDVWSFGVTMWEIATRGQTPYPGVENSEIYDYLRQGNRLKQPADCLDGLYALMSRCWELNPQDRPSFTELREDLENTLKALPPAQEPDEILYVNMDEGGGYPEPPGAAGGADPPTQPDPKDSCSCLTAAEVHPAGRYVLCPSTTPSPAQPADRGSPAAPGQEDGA

[3] = molecular target: T3, TYRO3 (455-end) (Homo sapiens, UniProt Q06418); assay: HTRF kinase activity biochemical assay, TYRO3; settings: recombinant kinase, 10 uM ATP, 30 minutes pre-incubation; read-out: HTRF TYRO IC50;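 note: biotinylated tyrosine kinase substrate phosphorylation detected via streptavidin-XL665 and Eu3+-cryptate anti-phospho antibody time-resolved fluorescence, read after 1 h detection at room temperature, 384-well format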
T3 construct: TYRO3 (455-end); purchased SignalChem, Canada
T3 sequence (Q06418 455-890 limits assumed): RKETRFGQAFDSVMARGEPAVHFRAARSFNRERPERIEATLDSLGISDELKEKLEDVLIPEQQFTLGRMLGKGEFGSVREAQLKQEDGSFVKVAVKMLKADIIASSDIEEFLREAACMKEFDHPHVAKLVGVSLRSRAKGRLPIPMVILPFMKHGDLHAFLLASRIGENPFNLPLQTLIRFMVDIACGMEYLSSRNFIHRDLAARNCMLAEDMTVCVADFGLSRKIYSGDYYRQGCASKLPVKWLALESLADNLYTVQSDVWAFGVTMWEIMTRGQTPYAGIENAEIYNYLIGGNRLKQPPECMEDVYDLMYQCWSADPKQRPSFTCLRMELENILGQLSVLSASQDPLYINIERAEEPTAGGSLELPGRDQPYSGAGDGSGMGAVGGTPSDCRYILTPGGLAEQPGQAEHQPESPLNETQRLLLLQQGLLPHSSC

What does the source list for Cn1cc(Nc2ncc(C3CN(c4nc5ccc(OCCCc6ccccc6)cc5o4)C3)nc2C(N)=O)cn1 [Example 60, 3-[(1-methyl-1H-pyrazol-4-yl)amino]-6-{1-[6-(3-phenylpropoxy)-1,3-benzoxazol-2-yl]azetidin-3-yl}pyrazine-2-carboxamide]?
IC50 [1]: < 1 nM; IC50 [2]: 1 nM; IC50 [3]: 100 nM

Which results are given for Cn1cc(Nc2ncc(C3CN(c4nc5ccc(OCC6CC(CO)C6)cc5o4)C3)nc2C(N)=O)cn1 (stereo not drawn) [Example 56, 6-[1-(6-{[3-(hydroxymethyl)cyclobutyl]methoxy}-1,3-benzoxazol-2-yl)azetidin-3-yl]-3-[(1-methyl-1H-pyrazol-4-yl)amino]pyrazine-2-carboxamide]?
IC50 [1]: < 1 nM; IC50 [2]: 2 nM; IC50 [3]: 92 nM

Cn1cc(Nc2ncc(C3CN(c4nc5ccc(O[C@H]6CCOC6)cc5o4)C3)nc2C(N)=O)cn1 [Example 69, 3-[(1-methyl-1H-pyrazol-4-yl)amino]-6-[1-(6-{[(3S)-oxolan-3-yl]oxy}-1,3-benzoxazol-2-yl)azetidin-3-yl]pyrazine-2-carboxamide] was tested. Which IC50 [1] did it give?
Its IC50 is 2 nM.

And the IC50 [2]?
Its IC50 is 8 nM.

What about the IC50 [3] of the same compound?
Its IC50 is 570 nM.

Which IC50 [1] does the source give for Cn1cc(Nc2ncc(C3CN(c4nc5ccc(OCCC(C)(C)OC(=O)CNC(=O)OC(C)(C)C)cc5o4)C3)nc2C(N)=O)cn1 [Example 95A, 4-{[2-(3-f{6-carbamoyl-5-[(1-methyl-1H-pyrazol-4-yl)amino]pyrazin-2-yl}azetidin-1-yl)-1,3-benzoxazol-6-yl]oxy}-2-methylbutan-2-yl [(tert-butoxycarbonyl)amino]acetate] here?
The IC50 was < 1 nM.

And the IC50 [2]?
Its IC50 is 3 nM.

And the IC50 [3]?
The IC50 was 460 nM.

How did the IC50 [1] turn out when Cn1cc(Nc2ncc(C3CN(c4nc5ccc(C(=O)N6CCC[C@@H]6C(C)(C)O)cc5o4)C3)nc2C(N)=O)cn1 [Example 75, 6-(1-{6-[(2R)-2-(2-hydroxypropan-2-yl)pyrrolidine-1-carbonyl]-1,3-benzoxazol-2-yl}azetidin-3-yl)-3-[(1-methyl-1H-pyrazol-4-yl)amino]pyrazine-2-carboxamide] was run?
Its IC50 is < 1 nM.

What about the IC50 [2] of the same compound?
The IC50 was 3 nM.

And the IC50 [3]?
Its IC50 is 65 nM.

Which IC50 [1] does the source give for Cn1cc(Nc2ncc(C3CN(c4nc5ccc(OCc6cn[nH]c6)cc5o4)C3)nc2C(N)=O)cn1 [Example 93, 3-[(1-methyl-1H-pyrazol-4-yl)amino]-6-(1-{6-[(1H-pyrazol-4-yl)methoxy]-1,3-benzoxazol-2-yl}azetidin-3-yl)pyrazine-2-carboxamide] here?
The IC50 was < 1 nM.

And the IC50 [2]?
The IC50 was 2 nM.

And the IC50 [3]?
The IC50 was 44 nM.

Which results are given for Cn1cc(Nc2ccc(C3CN(c4nc5ccc(OCCC(C)(C)OP(=O)(O)O)cc5o4)C3)nc2C(N)=O)cn1 [Example 109, 4-{[2-(3-{6-carbamoyl-5-[(1-methyl-1H-pyrazol-4-yl)amino]pyridin-2-yl}azetidin-1-yl)-1,3-benzoxazol-6-yl]oxy}-2-methylbutan-2-yl dihydrogen phosphate]?
IC50 [1]: 27 nM; IC50 [2]: 78 nM; IC50 [3]: 2200 nM

Which results are given for Cn1cc(Nc2ncc(C3CN(c4nc5ccc(CCC(=O)N6CCCC6)cc5o4)C3)nc2C(N)=O)cn1 [Example 63, 3-[(1-methyl-1H-pyrazol-4-yl)amino]-6-(1-{6-[3-oxo-3-(pyrrolidin-1-yl)propyl]-1,3-benzoxazol-2-yl}azetidin-3-yl)pyrazine-2-carboxamide]?
IC50 [1]: 11 nM; IC50 [2]: 16 nM; IC50 [3]: 4300 nM

Which results are given for Cn1cc(Nc2ncc(C3CN(c4nc5ccc(OCC(CO)CO)cc5o4)C3)nc2C(N)=O)cn1 [Example 51, 6-(1-{6-[3-hydroxy-2-(hydroxymethyl)propoxy]-1,3-benzoxazol-2-yl}azetidin-3-yl)-3-[(1-methyl-1H-pyrazol-4-yl)amino]pyrazine-2-carboxamide]?
IC50 [1]: 3 nM; IC50 [2]: 6 nM; IC50 [3]: 1740 nM

CNC(=O)Cc1ccc2nc(N3CC(c4cnc(Nc5cnn(C)c5)c(C(N)=O)n4)C3)oc2c1 [Example 50, 6-(1-{6-[2-(methylamino)-2-oxoethyl]-1,3-benzoxazol-2-yl}azetidin-3-yl)-3-[(1-methyl-1H-pyrazol-4-yl)amino]pyrazine-2-carboxamide] was tested. Which IC50 [1] did it give?
Its IC50 is 9 nM.

What about the IC50 [2] of the same compound?
The IC50 was 16 nM.

What about the IC50 [3] of the same compound?
Its IC50 is 3550 nM.

For Cn1cc(Nc2ncc(C3CN(c4nc5ccc(/C=C/CO)cc5o4)C3)nc2C(N)=O)cn1 [Example 32A, 6-(1-{6-[(1E)-3-hydroxyprop-1-en-1-yl]-1,3-benzoxazol-2-yl}azetidin-3-yl)-3-[(1-methyl-1H-pyrazol-4-yl)amino]pyrazine-2-carboxamide], which IC50 [1] is on record?
The IC50 was < 1 nM.

What about the IC50 [2] of the same compound?
The IC50 was 2 nM.

What about the IC50 [3] of the same compound?
Its IC50 is 140 nM.

Cc1ccc2nc(N3CC(c4ccc(Nc5cnn(C)c5)c(C(N)=O)n4)C3)oc2c1 [Example 78, 6-[1-(6-methyl-1,3-benzoxazol-2-yl)azetidin-3-yl]-3-[(1-methyl-1H-pyrazol-4-yl)amino]pyridine-2-carboxamide] was tested. Which IC50 [1] did it give?
The IC50 was 2 nM.

And the IC50 [2]?
The IC50 was 6 nM.

And the IC50 [3]?
The IC50 was 270 nM.

What does the source list for COC[C@H]1CCCN1C(=O)Cc1ccc2nc(N3CC(c4cnc(Nc5cnn(C)c5)c(C(N)=O)n4)C3)oc2c1 [Example 71, 6-[1-(6-{2-[(2R)-2-(methoxymethyl)pyrrolidin-1-yl]-2-oxoethyl}-1,3-benzoxazol-2-yl)azetidin-3-yl]-3-[(1-methyl-1H-pyrazol-4-yl)amino]pyrazine-2-carboxamide]?
IC50 [1]: 2 nM; IC50 [2]: 4 nM; IC50 [3]: 3730 nM

How did the IC50 [1] turn out when Cn1cc(Nc2ncc(C3CN(c4nc5ccc(OCCC(C)(C)OC(=O)CN)cc5o4)C3)nc2C(N)=O)cn1 [Example 95, 4-{[2-(3-{6-carbamoyl-5-[(1-methyl-1H-pyrazol-4-yl)amino]pyrazin-2-yl}azetidin-1-yl)-1,3-benzoxazol-6-yl]oxy}-2-methylbutan-2-yl glycinate] was run?
The IC50 was < 1 nM.

And the IC50 [2]?
Its IC50 is 3 nM.

What about the IC50 [3] of the same compound?
Its IC50 is 280 nM.

How did the IC50 [1] turn out when Cn1cc(Nc2ncc(C3CN(c4nc5ccc(C6=CCCC6)cc5o4)C3)nc2C(N)=O)cn1 [Example 10A, 6-{1-[6-(cyclopent-1-en-1-yl)-1,3-benzoxazol-2-yl]azetidin-3-yl}-3-[(1-methyl-1H-pyrazol-4-yl)amino]pyrazine-2-carboxamide] was run?
The IC50 was 3 nM.

And the IC50 [2]?
The IC50 was 4 nM.

And the IC50 [3]?
The IC50 was 690 nM.

Cn1cc(Nc2ncc(C3CN(c4nc5ccc(C(=O)O)cc5o4)C3)nc2C(N)=O)cn1 [Example 18A, 2-(3-f{6-carbamoyl-5-[(1-methyl-1H-pyrazol-4-yl)amino]pyrazin-2-yl}azetidin-1-yl)-1,3-benzoxazole-6-carboxylic acid] was tested. Which IC50 [1] did it give?
Its IC50 is 3710 nM.

And the IC50 [2]?
Its IC50 is 5900 nM.

What about the IC50 [3] of the same compound?
The IC50 was > 12500 nM.

What does the source list for C=CCOP(=O)(OCC=C)OC(C)(C)CCOc1ccc2nc(N3CC(c4cnc(Nc5cnn(C)c5)c(C(N)=O)n4)C3)oc2c1 [Example 77A, 4-{[2-(3-f{6-carbamoyl-5-[(1-methyl-1H-pyrazol-4-yl)amino]pyrazin-2-yl}azetidin-1-yl)-1,3-benzoxazol-6-yl]oxy}-2-methylbutan-2-yl diprop-2-en-1-yl phosphate]?
IC50 [1]: 2 nM; IC50 [2]: 6 nM; IC50 [3]: 250 nM

With Cn1cc(Nc2ncc(C3CN(c4nc5ccc(CC(CO)CO)cc5o4)C3)nc2C(N)=O)cn1 [Example 25, 6-(1-{6-[3-hydroxy-2-(hydroxymethyl)propyl]-1,3-benzoxazol-2-yl}azetidin-3-yl)-3-[(1-methyl-1H-pyrazol-4-yl)amino]pyrazine-2-carboxamide] as the compound, how does the IC50 [1] read?
The IC50 was 7 nM.

And the IC50 [2]?
The IC50 was 10 nM.

And the IC50 [3]?
Its IC50 is 1100 nM.

Which results are given for Cn1cc(Nc2ncc(C3CN(c4nc5ccc(C(=O)N6CCOCC6)cc5o4)C3)nc2C(N)=O)cn1 [Example 46, 3-[(1-methyl-1H-pyrazol-4-yl)amino]-6-{1-[6-(morpholine-4-carbonyl)-1,3-benzoxazol-2-yl]azetidin-3-yl}pyrazine-2-carboxamide]?
IC50 [1]: 3 nM; IC50 [2]: 9 nM; IC50 [3]: 9 nM
